Source: patent US6521633B2, “Treating NIDDM with RXR agonists” (Ligand Pharmaceuticals Incorporated, priority 1995, dated 2003)

What was measured:
C3H/10T1/2 cells = assay: Oil red O staining of C3H/10T1/2 cells; assay type: cell-based, mouse; details: for Experiment B (+BRL + Insulin) % differentiated cells / Experiment A (+BRL) % differentiated cells: 7 days; for effect on differentiation induced by BRL 49653 or BRL/insulin: in combination with BRL 49653
3T3-LI cells [1] = assay: Oil red O staining of differentiating 3T3-LI adipocytes; assay type: cell-based, mouse; details: for Percent of Differentiated Cells: 3T3-L1, BRL 49653 and LG 100268 at 1 μM; for Percent of Differentiated Cells / cells induced to differentiate into adipocytes: insulin at 0.01 mg/ml; for cells induced to differentiate into adipocytes: BRL 49653 and retinoid at 1 μM
Description: They are contact inhibited and can be induced to differentiate into adipocyte cells containing large lipid droplets within the cytoplasm. Adipocyte differentiation can be observed by oil red O staining which stains the lipid droplets within the cytoplasm red. The extent of adipocyte differentiation can then be monitored by microscope observation.

[2] = system: LPL (lipoprotein lipase) mRNA and PPARγ mRNA; assay: Northern blot analysis of adipocyte specific genes in 3T3-LI cells; assay type: cell-based, mouse; details: 3T3-LI treated for 7 days; BRL 49653 1 μM, LG 100268 1 μM, insulin 0.01 mg/ml
Description: A third measure of adipocyte differentiation is to examine regulation of gene expression. […] Northern blot analysis was used to dissect the molecular aspects of how retinoids effect target genes of differentiating adipocytes. PPARγ, lipoprotein lipase (LPL), and β-actin (loading control) mRNA levels were monitored after cells were treated with thiazolidinediones and retinoids.
Adipocyte specific genes were monitored via northern blot analysis.

3T3-LI cells [3] = assay: 96-well plate triglyceride accumulation assay in differentiating adipocytes; assay type: cell-based, mouse; details: for triglyceride accumulation: retinoids and BRL 49653 at 1 μM, insulin at 0.01 mg/ml, alone or all together; for triglyceride accumulation on addition of retinoid with BRL 49653: retinoid 1 μM with BRL 49653 1 μM
Description: For a more quantitative assay and rapid screening of compounds, a 96-well plate assay was developed to quantitate the amount of triglyceride produced by the differentiating adipocytes. […] The level of triglyceride accumulation can then be measured via an enzymatic color reaction which can be read in a plate reader. The retinoid modulation of lipid formation was quantitated by monitoring triglyceride formation.

3T3-L1 cells = assay: Insulin stimulated labeled 2-deoxyglucose uptake assay; assay type: cell-based, mouse; details: 3T3-L1 treated 10 days; BRL 49653 or LG 100268 (1 μM); insulin 0.01 mg/ml for 5 days; normalized to total cellular protein
Description: A fourth indicator for the utility of a compound in treating NIDDM or insulin-resistant diabetes is the compound's, ability to enhance insulin-stimulated glucose uptake. Labeled 2-deoxyglucose (2-DOG, a glucose analog) assay was performed with a preadipocyte cell line in the presence of insulin and a candidate compound to measure the level of 2-DOG incorporation.
A murine preadipocyte cell line, 3T3-L1, is widely used to study glucose uptake, adipogenesis, and has been used in the characterization of thiazolidinediones and other PPARγ activators.
Insulin was added to the cells at a concentration of 0.01 mg/ml for 5 days, thereafter no insulin was added. […] The level of incorporated labeled 2-DOG was normalized to the amount of total cellular protein.

db/db mice = assay: In vivo experiment with db/db mice; details: for increase of HDL-cholesterol levels in comparison to controls: BRL 49653, or combination, terminal serum, precipitation method; for lowering of the level of glucose in comparison to control: BRL 49653 1 mg/kg, LG 100268 20 mg/kg, or combination
Description: Animals: Strain Diabetic C57BLKS/Jm+/+db, 82 mice
Mice were identified by an ear punch code (#1-82) and separated into 8 groups (A-H). Each group consisted of 10 mice separated into 4 cages with 2-3 mice/cage. […] Control group C consisted of 12 mice. […] Food and water were provided ad libitum. Food intake/cage was measured over selected periods and expressed as g food consumed/100 g mouse/day.
(§1) On days of study, food was removed from the cages at selected intervals of time between 6:15 and 7:00 AM. Animal weights were recorded 2 h after start of fast and blood samples taken after a 3 h fast. Blood was drawn from a cut at the tip of the tail and collected into a heparinized capillary tube (approx. 75 μl volume). After centrifugation, the hematocrit was read in a microcapillary reader, recorded and the tube broken for recovery of plasma for analysis of glucose, triglyceride and insulin concentration.
Blood samples were collected on days 0−1,0, 3, 7, 10, and on the final day of study, days 13-15. […] The various solutions were gavaged daily to their respective groups based on the animals weight taken that morning or the weight of the animal taken on the preceding day of weighing. To assess alterations in plasma FFA, on day 10 an addition 75 μl blood sample was collected into an EDTA-coated capillary tube immediately after collecting the basal heparinized capillary tube sample.
On the final day of study, mice were not gavaged with test solution. The last gavage was administered on the day preceding the final day, i.e., day 12 for animals terminated on day 13, day 13 for animals terminated on day 14 and day 14 for animals terminated on day 15. Terminal blood was collected by decapitation to provide serum for assessment of HDL.

ob/ob mice = assay: In vivo experiment with ob/ob mice; details: mouse
Description: Each group consisting of 10 mice.
as §1
Blood samples were collected on days 0−3, 0, 3, 6, 8, 10, 14±1 and final collections were made on days 15, 16 or 17. FFA samples were collected on day 10 by drawing a second 75 μl blood sample in a non-heparinized tube coated with EDTA. This tube was collected immediately after the heparinized tube collection.
Animals in groups H were administered control gavage solution (0.6 ml/42 g) daily commencing on day 0 and ending on the day preceding the final day. 11 test solutions were administered to animals in groups designated A-G, I-L. All gavage solutions were administered after refeeding on days in which mice were fasted for blood sampling.

[4] = BRL 0.1 μM + insulin 0.01 mg/ml, alone or plus ALRT 1057 1 μM or LGD 1069 1 μM
[5] = BRL 0.1 μM alone or plus ALRT 1057 1 μM, LGD 1069 1 μM or TTNPB 10 nM
[6] = BRL 10 μM + insulin 0.01 mg/ml, alone or plus ALRT 1057 1 μM, LGD 1069 1 μM or TTNPB 10 nM
[7] = BRL 10 μM alone or plus ALRT 1057 1 μM, LGD 1069 1 μM or TTNPB 10 nM
[8] = middle group r17-r20, headed BRL (0.1 μM), + insulin 0.01 mg/ml, alone or plus ALRT 1057 1 μM, LGD 1069 1 μM or TTNPB 10 nM
[9] = middle group r17-r20, headed BRL (0.1 μM), alone or plus ALRT 1057 1 μM, LGD 1069 1 μM or TTNPB 10 nM

Compound: CC1=C(/C=C/C(C)=C\C=C\C(C)=C\C(=O)O)C(C)(C)CCC1 [ALRT 1057, 9-cis retinoic acid]
- Experiment B (+BRL + Insulin) % differentiated cells (C3H/10T1/2 cells; [4]): 65%
- Experiment A (+BRL) % differentiated cells (C3H/10T1/2 cells; [5]): 45%
- Experiment B (+BRL + Insulin) % differentiated cells (C3H/10T1/2 cells; [6]): 99%
- Experiment A (+BRL) % differentiated cells (C3H/10T1/2 cells; [7]): 80%
- effect on differentiation induced by BRL 49653 or BRL/insulin (C3H/10T1/2 cells): large increase in the amount of differentiation
- Experiment B (+BRL + Insulin) % differentiated cells (C3H/10T1/2 cells; [8]): 90%
- Experiment A (+BRL) % differentiated cells (C3H/10T1/2 cells; [9]): 65%
- amount of adipocyte differentiation when used in combination with BRL 49653 (3T3-LI cells [1]; 3T3-LI): increased the amount of differentiation

Compound: C/C(=C\c1ccc(C(=O)O)cc1)c1ccc2c(c1)C(C)(C)CCC2(C)C [TTNPB, reference compound]
- Experiment A (+BRL) % differentiated cells (C3H/10T1/2 cells; [5]): 0.2%
- Experiment B (+BRL + Insulin) % differentiated cells (C3H/10T1/2 cells; [6]): 50%
- Experiment A (+BRL) % differentiated cells (C3H/10T1/2 cells; [7]): 5%
- effect on differentiation induced by BRL 49653 or BRL/insulin (C3H/10T1/2 cells): inhibited the differentiation
- Experiment B (+BRL + Insulin) % differentiated cells (C3H/10T1/2 cells; [8]): 30%
- Experiment A (+BRL) % differentiated cells (C3H/10T1/2 cells; [9]): 2%

Compound: Insulin: insulin, used at 0.01 mg/ml
- LPL and PPARγ mRNA levels, relative signal normalized to β-actin [2]: three to five fold increase
- Percent of Differentiated Cells (3T3-LI cells [1]): 20%
- triglyceride accumulation (3T3-LI cells [3]): induced some triglyceride accumulation

Compound: CN(CCOc1ccc(CC2SC(=O)NC2=O)cc1)c1ccccn1 (stereo not shown) [BRL 49653, 5-[[4-[2-(methyl-2-pyridinylamino)ethoxy]phenyl]methyl]-2,4-thiazolidinedione, reference compound]
- increase in 2-DOG uptake (3T3-L1 cells): About 5 fold
- increase of HDL-cholesterol levels in comparison to controls (db/db mice; LG 100268 20 mg/kg): equivalent level of increase
- lowering of the level of glucose in comparison to control (db/db mice; daily gavage, by day 15): 40%
- Percent of Differentiated Cells (3T3-LI cells [1]): 50%
- cells induced to differentiate into adipocytes (3T3-LI cells [1]; 3T3-LI): 50%
- triglyceride accumulation (3T3-LI cells [3]): induced some triglyceride accumulation

Compound: Cc1cc2c(cc1C1(c3ccc(C(=O)O)cn3)CC1)C(C)(C)CCC2(C)C [LG 100268, 2-[1-(3,5,5,8,8-pentamethyl-5,6,7,8-tetrahydro-2-naphthyl)-cyclopropyl]-pyridine-5-carboxylic acid]
- increase in 2-DOG uptake (3T3-L1 cells): About 2 fold
- increase of HDL-cholesterol levels in comparison to controls (db/db mice; LG 100268 20 mg/kg): 20%
- lowering of the level of glucose in comparison to control (db/db mice; daily gavage, by day 15): 40%
- lowering of the level of triglycerides (db/db mice; daily gavage, LG 100268 20 mg/kg, BRL 49653 1 mg/kg, or combination, by day 15): 46%
- lowering of the level of glucose in comparison to control (ob/ob mice): ~50%
- Percent of Differentiated Cells (3T3-LI cells [1]): 50%
- cells induced to differentiate into adipocytes (3T3-LI cells [1]; 3T3-LI): 50%
- lipid droplets within the cytoplasm (3T3-LI cells [1]; 3T3-LI, LG 100268 at 1 μM): bigger redder lipid droplets
- amount of adipocyte differentiation when used in combination with BRL 49653 (3T3-LI cells [1]; 3T3-LI): increased dramatically
- triglyceride accumulation on addition of retinoid with BRL 49653 (3T3-LI cells [3]): increased the amount of triglyceride accumulation
- triglyceride accumulation (3T3-LI cells [3]): largest response

Compound: C=C(c1ccc(C(=O)O)cc1)c1cc2c(cc1C)C(C)(C)CCC2(C)C [LGD 1069]
- Experiment B (+BRL + Insulin) % differentiated cells (C3H/10T1/2 cells; [4]): 90%
- Experiment A (+BRL) % differentiated cells (C3H/10T1/2 cells; [5]): 45%
- Experiment B (+BRL + Insulin) % differentiated cells (C3H/10T1/2 cells; [6]): 99%
- Experiment A (+BRL) % differentiated cells (C3H/10T1/2 cells; [7]): 80%
- effect on differentiation induced by BRL 49653 or BRL/insulin (C3H/10T1/2 cells): large increase in the amount of differentiation
- Experiment B (+BRL + Insulin) % differentiated cells (C3H/10T1/2 cells; [8]): 90%
- Experiment A (+BRL) % differentiated cells (C3H/10T1/2 cells; [9]): 65%
- amount of adipocyte differentiation when used in combination with BRL 49653 (3T3-LI cells [1]; 3T3-LI): increased the amount of differentiation
- triglyceride accumulation on addition of retinoid with BRL 49653 (3T3-LI cells [3]): increased the amount of triglyceride accumulation
